Data on three compounds can be found in patent US9676997B2, “Compositions and methods for stabilizing luminogenic substrates” (Promega Corporation, priority 2014, dated 2017).

Like-named read-outs stand apart in the source and are kept apart here.

Data set [1] can be described thus: Stability of 2.3 mM furimazine at 37° C. in the dark with or without 200 mM thionucleoside, luminescence with NANOLUC enzyme. In kind it is physicochemical. The following applies: 50% propylene glycol:50% ethanol. The procedure: Specifically, a stock solution of furimazine in 50% propylene glycol:50% ethanol (v/v) was prepared, in which the final concentration of furimazine by absorbance was 4.6 mM. The furimazine stock solution was then diluted 1:1 in 50% propylene glycol:50% ethanol (v/v) to create a control solution without the additives ATT, TAK-0014 and TAK-0002 (i.e., “no additive furimazine” control) and containing 2.3 mM furimazine. 400 mM stock solutions of ATT, TAK-0014 and TAK-0002 were prepared in 50% propylene glycol:50% ethanol (v/v). Each of the ATT, TAK-0014 and TAK-0002 stock solutions was then diluted 1:1 in the 4.6 mM furimazine stock solution to yield solutions containing 200 mM ATT, TAK-0014 or TAK-0002, and 2.3 mM furimazine.
Each sample was separated into multiple amber tubes and incubated at 37° C. in a dark incubator (i.e., in the absence of light). Aliquots were taken from each sample at various time points and stored at −20° C. in the dark (i.e., in the absence of light) until all time points were collected.
To measure luminescence in the aliquots, each aliquot was diluted 1:50 in buffer (NANOGLO buffer, Promega Corporation) to yield 46 μM furimazine. These diluted aliquots were further diluted 1:10 in buffer (NANOGLO buffer, Promega Corporation) to yield 4.6 μM furimazine. 504 of each dilution (i.e., the twice diluted (0.1) aliquots) was mixed with 504, of CO2-independent media+10% fetal bovine serum (FBS) and 0.4 ng/mL luminogenic enzyme (NANOLUC enzyme, Promega Corporation). Luminescence was measured on a luminometer (GLOMAX Multi Plus luminometer, Promega Corporation). Relative light units (RLUs) were normalized for each time point by the RLU value at the 0 days time point. The percent activity from the 0 days time point (i.e., t=0) was plotted against time (days) for each sample as shown in FIG. 15A. In FIG. 15A, B-ATT denoted TAK-0002 and E-ATT denoted TAK-0014.
Error in Table 15 was the standard error from a regression calculation and Fz denoted furimazine, B-ATT denoted TAK-0002, and E-ATT denoted TAK-0014.

Data set [2] in a line: Stability of 1.25 mM coelenterazine in 50% ethanol and 50% propylene glycol with or without 225 mM ATT, HPLC and Arrhenius plots. Type of data set: physicochemical. The following applies: for half-life at 1.25 mM: solution of 50% ethanol and 50% propylene glycol. The procedure:
The stability of coelenterazine in the presence and absence of ATT was measured over time at different temperatures. Specifically, 1.25 mM coelenterazine was present in a solution of 50% ethanol and 50% propylene glycol (i.e., the solution without ATT) or a solution of 50% ethanol and 50% propylene glycol with 225 mM ATT (i.e., the solution with ATT). These two solutions were incubated at −20° C., room temperature (RT), 40° C., or 60° C. and analyzed at 0 days, 1 day, 3 days, 7 days, 15 days, and 30 days.
Following incubation, high performance liquid chromatography (HPLC) was utilized to identify the components of the respective solutions at each time point. Specifically, an Agilent 1100 HPLC instrument was used and equipped with a quaternary pump, thermostatted autosampler and column compartment, and a G1311B diode-array detector. The column used was a Synergi-MAX-RP (Phenomenex, Torrance, Calif.) 100 AÅ 50×4.6 2.5 μm. The run on the HPLC was a gradient run with 0.1% TFA in water and acetonitrile. Absorbance was measured at 262 nanometers (nm). Standards of coelenterazine and its known degradants were run to confirm both the retention time and absorbance trace. 5 μl of each solution was injected and the retention time of coelenterazine was 3.9 minutes at room temperature.
The results of the HPLC analysis are shown below in Tables 1 and 2 and FIGS. 1A and 1B, in which the values are reported as relative peak area percentage at 262 nm (i.e., the lamba max of the substrate). […] In each of FIGS. 1A and 1B, diamond is 1.25 mM coelenterazine incubated over time with or without 225 mM ATT, respectively, at −20° C., triangle is 1.25 mM coelenterazine incubated over time with or without 225 mM ATT, respectively, at room temperature (RT), star is 1.25 mM coelenterazine incubated over time with or without 225 mM ATT, respectively, at 40° C., and cross is 1.25 mM coelenterazine incubated over time with or without 225 mM ATT, respectively, at 60° C.
From the HPLC analysis, the half-life of coelenterazine in the presence of ATT at 40° C. and 60° C. was calculated to be 23 days and 5 days, respectively, while the half-life of coelenterazine in the absence of ATT at 40° C. and 60° C. was calculated to be 9.5 days and 2 days, respectively (see Table 3 below).
Additionally, Arrhenius plots were generated for coelenterazine in the presence and absence of ATT to calculate the half-life of coelenterazine at various temperatures. The Arrhenius equation is as follows: […]
In FIG. 7, the slope was −8636.59, the intercept was 24.1199, and R^2 was 0.9983.
In FIG. 8, the slope was −7382.51, the intercept was 21.2598, and R^2 was 0.9570.

Setting [3] is: decomposition of coelenterazine.

Turning to `O=c1[nH]c(=S)[nH]nc1Cc1ccccc1` [TAK-0002, 6-benzyl-3-sulfanyl-1,2,4-triazin-5-ol], the “stabilization of furimazine against decomposition in the absence of light” value in data set [1] was “stabilized furimazine against decomposition in the absence of light”.
Same read-out and setting: then `CCc1n[nH]c(=S)[nH]c1=O` [TAK-0014], with “stabilized furimazine against decomposition in the absence of light”.
`O=c1c(Cc2ccc(O)cc2)nc2c(Cc3ccccc3)[nH]c(-c3ccc(O)cc3)cn1-2` [Coelenterazine (27-957-28), coelenterazine]: the “relative peak area percentage at 262 nm” value is given as 96.5% in data set [2] (40° C., 0 days); 92.2% in data set [2] (40° C., 1 day); 84.9% in data set [2] (40° C., 3 days); 12.6% in data set [2] (40° C., 15 days); 96.5% in data set [2] (60° C., 0 days); 79.6% in data set [2] (60° C., 1 day). Also, the “relative peak area percentage at 262 nm” value in data set [2] (60° C., 3 days) was 36.8%; in data set [2] (RT, 0 days), 96.5%; in data set [2] (RT, 1 day), 96.1%; in data set [2] (RT, 3 days), 94.0%; in data set [2] (RT, 7 days), 91.0%; in data set [2] (RT, 15 days), 87.4%. The “relative peak area percentage at 262 nm” value in data set [2] (RT, 30 days) stood at 57.7%; in data set [2] (−20° C., 0 days), 96.5%; in data set [2] (−20° C., 1 day) it was 97.2%; in data set [2] (−20° C., 3 days), 96.4%; in data set [2] (−20° C., 7 days), 96.5%; in data set [2] (−20° C., 15 days), 96.5%. Further, the “relative peak area percentage at 262 nm” value in data set [2] (−20° C., 30 days) worked out at 86.2%. Moreover, in data set [2] (setting [3]), the Arrhenius plot intercept amounted to 21.2598. Further, the Arrhenius plot slope in data set [2] (setting [3]) was −7382.51. Further, the half-life at 1.25 mM is 852 h in data set [2] (20° C., read-out: T1/2 Calculated from Arrhenius (converted)); 170 h in data set [2] (40° C., read-out: T1/2 Calculated from Arrhenius (converted)); 228 h in data set [2] (40° C., read-out: T1/2 Estimated from graph (converted)); 40.8 h in data set [2] (60° C., read-out: T1/2 Calculated from Arrhenius (converted)); 48 h in data set [2] (60° C., read-out: T1/2 Estimated from graph (converted)); 46500 h in data set [2] (−20° C., read-out: T1/2 Calculated from Arrhenius (converted)).
